Assay results from patent publication US11021444B2, “Antiviral compounds” (priority 2013, dated 2021).
Where two headings read alike, the source gives them in different places.

Key:
[1] = tested on: Respiratory Syncytial Virus (RSV) long strain; experiment: microbe, parasite or virus in culture; format: cell-based; details: human respiratory syncytial virus, Tables A and B list compounds by EC50 band
Experimental: (§1) CPE reduction assays are performed as described by Sidwell and Huffman et al., Appl. Microbiol. (1971) 22(5):797-801 with slight modifications. HEp-2 cells (ATCC #, CCL-23) are seeded at a density of 1,500 cells/30 μl/well into the 384-well cell plate(s) (Corning #3701) one day prior to the assay. Compounds are added into 384-well cell plates by Labcyte POD 810 Plate Assembler system. Each of the test compounds is provided to duplicate wells of a 384-well cell plate at final concentrations starting from 100 μM or 1 μM using 1/3 stepwise dilutions for 9 points. Quick-thaw Respiratory Syncytial Virus (RSV) long strain (ATCC #VR-26) stock in a 37° C. water bath. Place on ice until ready to use. Viruses are diluted to the concentration of 100 TCID50/30 μL with medium and 30 μl diluted RSV are added into related wells of 384-well cell plates. For each plate, sixteen wells are set aside as uninfected, untreated cell controls (CC), and nine wells per test plate receive virus only as a control for virus replication (VC). The final DMSO concentration of all wells is 1%. Place the plates at 37° C., 5% CO2 for 5 days.
After 5 days incubation, observe the CPE of cells in all wells. […] Six μl of cell counting kit-8 reagent (CCK-8, Dojindo Molecular Technologies Inc., CK04-20) are added to each well, which allows colorimetric assays to determine the number of viable cells through the dehydrogenase activity detection. After 3-4 hour incubation, the absorbance of each well is measured with a spectrophotometric plate reader at 450 nm wavelength, using a 630 nm filter as background according to manufacturer's instruction.

[2] = Cytotoxicity Determination (CCK-8, without addition of virus); format: cell-based; details: human, 50% cytotoxicity concentration (CC50)
Experimental: as §1
In order to determine the compound cytotoxicity, in parallel, each of the compounds is applied to duplicate wells in a 384-well cell plate at serial final concentrations starting from 100 μM using 1/2 stepwise dilutions for 7 points without addition of virus. Incubate the cells at 37° C., 5% CO2 for 5 days. Add 6 μL CCK-8 into each well and incubate in a CO2 incubator at 37° C. for 3-4 hours.

recombinant RSV complex = recombinant RSV complex (Human respiratory syncytial virus A, UniProt P28887); experiment: RSV Polymerase Inhibition Assay; format: biochemical
Chain of recombinant RSV complex (P28887 whole entry): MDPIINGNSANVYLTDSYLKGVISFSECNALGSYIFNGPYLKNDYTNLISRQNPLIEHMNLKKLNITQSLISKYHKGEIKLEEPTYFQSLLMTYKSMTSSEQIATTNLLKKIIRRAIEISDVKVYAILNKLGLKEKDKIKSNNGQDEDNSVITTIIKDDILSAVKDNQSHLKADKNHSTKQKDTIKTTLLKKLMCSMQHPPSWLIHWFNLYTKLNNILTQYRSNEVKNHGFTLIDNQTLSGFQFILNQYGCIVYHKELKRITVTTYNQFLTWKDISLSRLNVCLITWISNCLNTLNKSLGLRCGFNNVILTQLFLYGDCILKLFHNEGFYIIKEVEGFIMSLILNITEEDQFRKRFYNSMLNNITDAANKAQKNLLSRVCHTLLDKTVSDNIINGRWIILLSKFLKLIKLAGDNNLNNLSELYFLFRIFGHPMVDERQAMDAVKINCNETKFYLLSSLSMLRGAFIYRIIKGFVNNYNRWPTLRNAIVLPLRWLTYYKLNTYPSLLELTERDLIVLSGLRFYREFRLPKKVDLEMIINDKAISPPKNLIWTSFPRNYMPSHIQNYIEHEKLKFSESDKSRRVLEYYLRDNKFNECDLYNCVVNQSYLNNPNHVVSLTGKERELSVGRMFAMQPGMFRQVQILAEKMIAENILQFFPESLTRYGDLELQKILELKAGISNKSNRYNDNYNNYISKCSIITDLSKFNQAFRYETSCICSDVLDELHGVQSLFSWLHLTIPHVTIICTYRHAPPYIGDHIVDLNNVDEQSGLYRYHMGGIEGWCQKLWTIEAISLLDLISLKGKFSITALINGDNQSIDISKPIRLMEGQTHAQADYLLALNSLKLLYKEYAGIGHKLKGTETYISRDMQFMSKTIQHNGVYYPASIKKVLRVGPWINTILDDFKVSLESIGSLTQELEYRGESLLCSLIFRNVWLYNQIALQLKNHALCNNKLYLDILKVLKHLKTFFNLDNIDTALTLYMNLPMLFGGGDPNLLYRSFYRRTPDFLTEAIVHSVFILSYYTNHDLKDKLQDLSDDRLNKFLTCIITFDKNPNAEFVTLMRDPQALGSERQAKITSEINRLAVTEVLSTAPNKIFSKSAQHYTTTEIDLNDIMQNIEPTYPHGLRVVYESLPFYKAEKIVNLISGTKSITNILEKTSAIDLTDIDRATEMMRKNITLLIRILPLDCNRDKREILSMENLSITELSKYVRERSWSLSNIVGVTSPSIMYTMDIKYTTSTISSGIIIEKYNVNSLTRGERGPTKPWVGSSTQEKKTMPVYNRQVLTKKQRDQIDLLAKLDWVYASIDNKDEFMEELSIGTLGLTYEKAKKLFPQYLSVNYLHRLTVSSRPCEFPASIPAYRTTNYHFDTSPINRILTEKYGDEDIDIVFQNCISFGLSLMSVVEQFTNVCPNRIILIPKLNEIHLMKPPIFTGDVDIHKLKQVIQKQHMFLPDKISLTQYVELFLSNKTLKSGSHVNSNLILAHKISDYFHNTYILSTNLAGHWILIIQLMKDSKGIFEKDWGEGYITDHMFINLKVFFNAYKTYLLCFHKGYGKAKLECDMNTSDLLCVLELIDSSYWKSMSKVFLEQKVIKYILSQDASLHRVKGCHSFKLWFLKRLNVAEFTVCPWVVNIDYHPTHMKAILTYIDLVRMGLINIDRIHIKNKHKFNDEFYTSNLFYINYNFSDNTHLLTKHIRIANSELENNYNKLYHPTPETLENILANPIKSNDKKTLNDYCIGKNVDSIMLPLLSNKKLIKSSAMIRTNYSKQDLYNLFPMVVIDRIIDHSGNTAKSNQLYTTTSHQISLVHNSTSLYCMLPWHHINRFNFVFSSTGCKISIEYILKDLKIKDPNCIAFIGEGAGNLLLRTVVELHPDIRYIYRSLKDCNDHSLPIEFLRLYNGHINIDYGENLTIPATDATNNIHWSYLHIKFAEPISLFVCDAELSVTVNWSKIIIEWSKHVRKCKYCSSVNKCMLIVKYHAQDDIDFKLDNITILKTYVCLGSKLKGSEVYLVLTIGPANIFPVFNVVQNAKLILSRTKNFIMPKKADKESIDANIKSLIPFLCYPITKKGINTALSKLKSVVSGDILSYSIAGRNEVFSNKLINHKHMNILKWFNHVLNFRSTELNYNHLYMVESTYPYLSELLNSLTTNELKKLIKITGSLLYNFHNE
Chain of recombinant RSV complex (P03421 whole entry, further chain): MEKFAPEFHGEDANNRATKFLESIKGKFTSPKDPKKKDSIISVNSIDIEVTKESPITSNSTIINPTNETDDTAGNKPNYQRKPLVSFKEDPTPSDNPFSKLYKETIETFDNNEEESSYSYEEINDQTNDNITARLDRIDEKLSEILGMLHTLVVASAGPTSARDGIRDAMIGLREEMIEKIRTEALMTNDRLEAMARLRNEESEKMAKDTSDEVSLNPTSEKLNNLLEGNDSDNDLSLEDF
Experimental: Standard RSV polymerase assays were conducted in the presence of 10 nM recombinant RSV complex in a reaction buffer containing Tris-HCl pH7.5, 6 mM MgCl2, and other additives and substrates including RNA oligonucleotides and radionucleotides. Standard reactions were incubated in 96-well plate format for 2 h at 30° C., in the presence of increasing concentration of inhibitor. The reaction was stopped with 90 μL of 0.1M EDTA, and the reaction product was transferred to a “reading” 96-well plate. After washing of the plate, radiolabeled RNA products were detected according to standard procedures with a Trilux Topcount scintillation counter.

[3] = HEp-2, 120 h, read-out: 50% effective concentration (EC50), HEp-2 cells infected with RSV long strain, 5 days, CCK-8 readout

Row | Structure (SMILES) | EC50 ([1]; 120 h, read-out: 50% effective concentration (EC50), HEp-2 cells infected with RSV long strain, 5 days, CCK-8 readout) [µM] | CC50 at 5 days [2] [µM] | IC50 (recombinant RSV complex) [µM] | EC50 [1, 3] [µM]
1 | COc1cc(C(=O)NCC(O)(c2cc3c(c(-c4ccc(F)c(Cl)c4)n2)OCC3(C)C)C(F)(F)F)ccc1OCC(N)=O (stereo not drawn) [Compound 210] | < 1 | 10 to 100 | < 1 | 
2 | COc1cc(C(=O)NCC(O)(c2cc3c(c(-c4ccc(F)c(Cl)c4)n2)OCC3(C)C)C(F)(F)F)cc2ccc(C)nc12 (stereo not drawn) [Compound 213] |  | > 100 | < 1 | < 1
3 | COc1cc(C(=O)NCC(O)(c2cc3c(c(-c4ccc(F)c(Cl)c4)n2)OCC3(C)C)C(F)(F)F)cc2ccc(C(N)=O)nc12 (stereo not drawn) [Compound 214] |  | 10 to 100 | < 1 | < 1
4 | COc1cc(C(=O)NCC(O)(c2cc3c(c(-c4ccc(F)c(Cl)c4)n2)OCC3(C)C)C(F)(F)F)cc2ccc(C#N)nc12 (stereo not drawn) [Compound 215] |  | 10 to 100 | < 1 | 1 to 50
5 | COc1cc(C(=O)NCC(O)(c2cc3c(c(-c4ccc(F)c(Cl)c4)n2)OCC3(C)C)C(F)(F)F)ccc1CN1CCNC1=O (stereo not drawn) [Compound 216] |  | 10 to 100 | < 10 | 1 to 50
6 | COc1cc(C(=O)NCC(=O)c2cc3c(c(-c4ccc(F)c(Cl)c4)n2)OCC3(C)C)ccc1OC1CCNC1=O (stereo not drawn) [Compound 217] |  | 10 to 100 | < 1 | < 1
7 | COc1cc(C(=O)NCC(O)(CO)c2cc3c(c(-c4ccc(F)c(Cl)c4)n2)OCC3(C)C)ccc1OC1CCNC1=O (stereo not drawn) [Compound 219] |  | 10 to 100 | < 1 | < 1
8 | COc1cc(C(=O)NCC(O)(CO)c2cc3c(c(-c4ccc(F)c(Cl)c4)n2)OCC3(C)C)cc2cccnc12 (stereo not drawn) [Compound 221] |  | 10 to 100 | < 1 | < 1
9 | COc1cc(C(=O)NCC(=O)c2cc3c(c(-c4ccc(F)c(Cl)c4)n2)OCC3(C)C)ccc1OC1CCN(C)C1=O (stereo not drawn) [Compound 222] |  | 10 to 100 | < 1 | < 1
10 | COc1cc(C(=O)NCC(C)(O)c2cc3c(c(-c4ccc(F)c(Cl)c4)n2)OCC3(C)C)ccc1OCCF (stereo not drawn) [Compound 227] |  | 10 to 100 | < 1 | < 1
11 | COc1cc(C(=O)NCC(O)(c2ccc(OC)c(-c3ccc(F)c(Cl)c3)n2)C(F)(F)F)ccc1OCC(F)(F)F (stereo not drawn) [Compound 233] |  | > 100 | < 1 | 1 to 50
12 | COc1cc(C(=O)NCC(O)(c2ccc(OC)c(-c3ccc(F)c(Cl)c3)n2)C(F)(F)F)ccc1OCC(C)(F)F (stereo not drawn) [Compound 234] |  | > 100 | < 1 | < 1
13 | COc1cc(C(=O)NCC(O)(c2ccc(OC)c(-c3ccc(F)c(Cl)c3)n2)C(F)(F)F)ccc1OC1CCOC1 (stereo not drawn) [Compound 235] |  | 10 to 100 | < 1 | < 1
14 | COc1cc(C(=O)NCC(O)(c2ccc(OC)c(-c3ccc(F)c(Cl)c3)n2)C(F)(F)F)ccc1OC1CCCC1 (stereo not drawn) [Compound 236] |  | > 100 | < 1 | 1 to 50
15 | COc1ccc(C(O)(CNC(=O)c2ccc(OC3CC3)c(Cl)c2)C(F)(F)F)nc1-c1ccc(F)c(Cl)c1 (stereo not drawn) [Compound 251] |  | 10 to 100 | < 1 | 1 to 50
16 | COc1ccc(C(O)(CNC(=O)c2ccc3ncccc3c2)C(F)(F)F)nc1-c1ccc(F)c(Cl)c1 (stereo not drawn) [Compound 252] |  | 10 to 100 | < 1 | 1 to 50
17 | COc1ccc(C(O)(CNC(=O)c2ccc3[nH]cnc3c2)C(F)(F)F)nc1-c1ccc(F)c(Cl)c1 (stereo not drawn) [Compound 253] |  | 10 to 100 | < 10 | 1 to 50
18 | COc1ccc(C(O)(CNC(=O)c2ccc3ncsc3c2)C(F)(F)F)nc1-c1ccc(F)c(Cl)c1 (stereo not drawn) [Compound 254] |  | 10 to 100 | < 1 | 1 to 50
19 | COc1cc(C(=O)NCC(O)(c2ccc(OC)c(-c3ccc(F)c(Cl)c3)n2)C(F)(F)F)ccc1OC1CCCC1=O (stereo not drawn) [Compound 257] |  | 10 to 100 | < 1 | < 1
